Where two headings read alike, the source gives them in different places.
How the values were obtained:
ABCG2 [1] = biological target: T1, ABCG2 (Homo sapiens, UniProt Q9UNQ0); test: Vanadate-sensitive ATPase activity of ABCG2 in Sf9 membrane preparations; type: biochemical; details: for IC50 values, ABCG2 stimulated (quercetin-stimulated) ATPase activity / IC50 values, ABCG2 basal ATPase activity / IC50: cholesterol-loaded Sf9 membranes, mean ± SEM, n=3; for Change of apparent KM of quercetin-stimulated ABCG2 ATPase activity / Change of vmax of quercetin-stimulated ABCG2 ATPase activity: Figs 5 and 6; for Type of inhibition of the quercetin-stimulated ATPase activity of ABCG2: modified Michaelis-Menten fit at different quercetin concentrations
T1 sequence (Q9UNQ0 1-655): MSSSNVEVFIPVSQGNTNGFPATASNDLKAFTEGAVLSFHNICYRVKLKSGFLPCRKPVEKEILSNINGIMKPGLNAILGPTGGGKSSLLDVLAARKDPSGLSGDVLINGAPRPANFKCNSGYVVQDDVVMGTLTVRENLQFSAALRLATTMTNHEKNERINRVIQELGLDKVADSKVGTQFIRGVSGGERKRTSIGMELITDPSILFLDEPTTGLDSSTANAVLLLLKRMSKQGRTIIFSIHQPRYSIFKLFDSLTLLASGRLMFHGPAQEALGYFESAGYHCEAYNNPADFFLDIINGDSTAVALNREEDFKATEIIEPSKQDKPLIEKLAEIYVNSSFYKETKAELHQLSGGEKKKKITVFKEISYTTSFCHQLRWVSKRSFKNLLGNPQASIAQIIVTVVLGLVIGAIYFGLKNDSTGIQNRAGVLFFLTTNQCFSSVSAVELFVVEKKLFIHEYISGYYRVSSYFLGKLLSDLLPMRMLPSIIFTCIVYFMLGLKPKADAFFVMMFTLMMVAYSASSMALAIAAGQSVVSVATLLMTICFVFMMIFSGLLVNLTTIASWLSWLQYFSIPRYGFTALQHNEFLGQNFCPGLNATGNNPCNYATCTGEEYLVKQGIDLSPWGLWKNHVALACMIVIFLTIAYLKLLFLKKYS
Method: For ATPase activity measurements we used membrane samples derived from Sf9 (Spodoptera frugiperda) insect ovarian cells expressing human Pgp or ABCG2. cDNAs of the transporters were cloned into recombinant baculovirus transfer vectors, the Sf9 insect ovarian cells were cultured, and infected with the baculoviruses as described in ref. [52]. Sf9 cells overexpressing human Pgp and ABCG2 were harvested and cell membranes were isolated. The protein concentration of the membrane samples were determined by the Lowry method. The ABCG2 expressing Sf9 membrane samples were loaded with cholesterol by cholesterol-methyl-beta-cyclodextrine complex in order to obtain high specific ATPase activity of the transporter. Membrane samples were stored at −80 °C. The transporter expression of the membrane samples (5 μg membrane protein/slot) was routinely checked by immunoblot using the G-1 mAb (for Pgp) or BXP-21 mAb (for ABCG2) and a goat anti-mouse HRP-conjugated IgG secondary antibody. Both primary and secondary antibodies were from Santa Cruz Biotechnology Inc. (CA, USA) and applied at 1:5,000 dilution.
The vanadate-sensitive ATPase activity of Pgp and ABCG2 was determined by a colorimetric assay described in refs [32],[55]. Specific ATPase activity of the transporters was calculated from the amount of released inorganic phosphate. […]. The absorbance of the samples was measured at 700 nm using a BioTek Synergy HT plate reader (BioTek Instruments, Winooski, USA).
The half-inhibitory doses (IC50) of retinoids were determined by fitting the dose-response relationships with a four parameter sigmoidal curve, where Amax and Amin are the ATPase activities measured at zero and at infinitely high inhibitor concentrations, respectively, n is the Hill coefficient and x is the concentration of the inhibitor:
Upon studying the kinetics of inhibition of the substrate-stimulated ATPase activity by retinoids data points were fitted with a modified form of the Michaelis-Menten equation[56] which includes the Hill coefficient, n: […]
v0 is the basal ATPase activity measured in the absence of the stimulatory substrate, while vmax is the maximal extent of ATPase stimulation and KM is the Michaelis constant (i.e. the substrate concentration at which the reaction rate is half of vmax).

Pgp [2] = biological target: T2, Pgp (Homo sapiens, UniProt P08183); details: for IC50 values, Pgp stimulated (verapamil-stimulated) ATPase activity: 40 μM verapamil; for IC50 values, Pgp stimulated (verapamil-stimulated) ATPase activity / IC50 values, Pgp basal ATPase activity: Sf9 membranes, mean ± SEM, n=3; for IC50 values, Pgp basal ATPase activity: 10 min pre-incubation 37 °C, 3 mM ATP/Mg2+ 25 min; for Change of apparent KM of verapamil-stimulated Pgp ATPase activity / Change of vmax of verapamil-stimulated Pgp ATPase activity: Figs 5 and 6; for Type of inhibition of the verapamil-stimulated ATPase activity of Pgp: modified Michaelis-Menten fit at different verapamil concentrations
T2 sequence (P08183 whole entry): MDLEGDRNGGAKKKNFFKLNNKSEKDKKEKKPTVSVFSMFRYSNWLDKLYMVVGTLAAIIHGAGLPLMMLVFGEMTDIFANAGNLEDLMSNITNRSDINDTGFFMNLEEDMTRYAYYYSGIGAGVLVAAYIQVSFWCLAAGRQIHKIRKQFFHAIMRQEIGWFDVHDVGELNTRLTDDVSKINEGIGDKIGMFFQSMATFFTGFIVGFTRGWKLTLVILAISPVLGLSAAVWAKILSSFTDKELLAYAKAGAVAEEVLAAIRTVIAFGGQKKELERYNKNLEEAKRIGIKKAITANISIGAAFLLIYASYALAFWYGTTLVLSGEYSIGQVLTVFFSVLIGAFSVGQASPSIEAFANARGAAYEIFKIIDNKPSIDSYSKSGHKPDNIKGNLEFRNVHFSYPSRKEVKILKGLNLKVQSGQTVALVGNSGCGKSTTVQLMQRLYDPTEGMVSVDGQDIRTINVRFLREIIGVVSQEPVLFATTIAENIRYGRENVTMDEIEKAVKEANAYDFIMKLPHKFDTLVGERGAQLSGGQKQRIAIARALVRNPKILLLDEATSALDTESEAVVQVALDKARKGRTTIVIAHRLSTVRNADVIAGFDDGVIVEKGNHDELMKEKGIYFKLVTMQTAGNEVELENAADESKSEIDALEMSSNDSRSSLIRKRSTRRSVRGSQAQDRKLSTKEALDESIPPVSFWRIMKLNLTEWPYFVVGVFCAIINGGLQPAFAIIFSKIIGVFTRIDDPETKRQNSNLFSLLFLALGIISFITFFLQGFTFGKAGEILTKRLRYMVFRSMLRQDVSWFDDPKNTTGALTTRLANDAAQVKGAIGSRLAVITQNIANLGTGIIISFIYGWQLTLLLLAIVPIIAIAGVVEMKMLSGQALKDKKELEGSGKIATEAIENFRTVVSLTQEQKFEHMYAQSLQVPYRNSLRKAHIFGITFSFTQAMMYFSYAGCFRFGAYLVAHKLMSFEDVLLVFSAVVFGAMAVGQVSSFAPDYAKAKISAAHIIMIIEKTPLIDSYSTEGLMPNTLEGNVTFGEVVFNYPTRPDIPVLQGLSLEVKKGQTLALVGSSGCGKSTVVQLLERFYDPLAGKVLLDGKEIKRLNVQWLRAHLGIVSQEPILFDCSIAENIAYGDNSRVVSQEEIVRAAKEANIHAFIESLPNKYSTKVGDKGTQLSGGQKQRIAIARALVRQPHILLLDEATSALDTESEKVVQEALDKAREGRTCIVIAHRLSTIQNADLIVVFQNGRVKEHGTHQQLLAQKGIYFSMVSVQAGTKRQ
Method: (§1) For ATPase activity measurements we used membrane samples derived from Sf9 (Spodoptera frugiperda) insect ovarian cells expressing human Pgp or ABCG2. cDNAs of the transporters were cloned into recombinant baculovirus transfer vectors, the Sf9 insect ovarian cells were cultured, and infected with the baculoviruses as described in ref. [52]. Sf9 cells overexpressing human Pgp and ABCG2 were harvested and cell membranes were isolated. The protein concentration of the membrane samples were determined by the Lowry method[53]. The ABCG2 expressing Sf9 membrane samples were loaded with cholesterol by cholesterol-methyl-beta-cyclodextrine complex in order to obtain high specific ATPase activity of the transporter[54]. Membrane samples were stored at −80 °C. The transporter expression of the membrane samples (5 μg membrane protein/slot) was routinely checked by immunoblot using the G-1 mAb (for Pgp) or BXP-21 mAb (for ABCG2) and a goat anti-mouse HRP-conjugated IgG secondary antibody. Both primary and secondary antibodies were from Santa Cruz Biotechnology Inc. (CA, USA) and applied at 1:5,000 dilution.
(§2) The vanadate-sensitive ATPase activity of Pgp and ABCG2 was determined by a colorimetric assay described in refs [32],[55]. Specific ATPase activity of the transporters was calculated from the amount of released inorganic phosphate. […] The absorbance of the samples was measured at 700 nm using a BioTek Synergy HT plate reader (BioTek Instruments, Winooski, USA).

[3] = system: NIH 3T3 / NIH 3T3 MDR1 and MDCK / MDCK ABCG2 cells; test: DPH steady-state fluorescence anisotropy (membrane fluidity); details: retinoids 100 μM; for Effect on DPH fluorescence anisotropy: cyclosporin 10 μM, Ko143 2 μM, 10 min 37 °C, all tested cell lines; for Effect on DPH anisotropy in transporter expressing compared to non-expressing cells: Pgp+ vs Pgp− NIH 3T3, ABCG2 expressing vs non-expressing MDCK
Pgp [4] = biological target: T2, Pgp; test: Calcein accumulation test (Pgp transport activity) in NIH 3T3 MDR1 cells; details: 20 min pre-treatment 37 °C, 500 nM calcein-AM 20 min
Method: (§3) Calcein-AM was applied to measure the transport activity of Pgp[51], while ABCG2 mediated transport was measured in mitoxantrone accumulation tests[18]. Cells were harvested and washed three times in PBS containing 7 mM glucose (gl-PBS). […] Dead cells were excluded from the analysis on the basis of propidium iodide (PI) staining.
(§4) Flow cytometric analysis was carried out on a Becton Dickinson FACSAria III Cell Sorter (Becton Dickinson, Mountain View, CA, USA). Calcein was excited by the 488 nm line of a solid state laser and the emitted light was detected using a 502 nm dichroic mirror and a 530/30 nm band-pass filter. […] AlexaFluor647 and mitoxantrone signals were detected with a 633 nm excitation laser and a 660/20 nm band-pass filter.

ABCG2 [5] = biological target: T1, ABCG2; test: Mitoxantrone accumulation test (ABCG2 transport activity) in MDCK ABCG2 cells; details: 20 min pre-treatment 37 °C, 5 μM mitoxantrone 40 min
Method: as §3, §4

[6] = system: Pgp- and ABCG2-negative NIH 3T3 and MDCK cells; test: Calcein and mitoxantrone accumulation in transporter negative cells; type: cell-based, mouse / canine; details: NIH 3T3 (calcein) and MDCK (mitoxantrone), Supplementary Fig. S1, 50 µM
Method: Supplementary Fig. S1: Effect of retinoid derivatives on the calcein (a) and
mitoxantrone (c) accumulation and viability (b, d) of Pgp- and ABCG2-negative NIH
3T3 and MDCK cells. Cells were pre-treated with retinoids added at 50 µM concentration
Cell viability was determined on the basis of propidium iodide exclusion.
(1 picture or pasted object on this page, not shown here)

[7] = cited from earlier work; for Plasma concentrations resulting from chemotherapy use: treatment of neuroblastoma or squamous cell carcinoma, ref [24][25][26]
[8] = cited from earlier work
Pgp [9] = biological target: T2, Pgp; test: biochemical; details: IC50 values, Sf9 membranes, mean ± SEM, n=3
Method: as §1, §2

[10] = 10 μM quercetin, read-out: IC50 values, ABCG2 stimulated (quercetin-stimulated) ATPase activity
[11] = read-out: IC50 values, ABCG2 basal ATPase activity
[12] = Pgp basal ATPase activity, 10 min pre-incubation 37 °C, 3 mM ATP/Mg2+ 25 min
[13] = Pgp stimulated (verapamil-stimulated) ATPase activity, 40 μM verapamil

CC1=C(/C=C/C(C)=C\C=C\C(C)=C\C(=O)O)C(C)(C)CCC1 [9-cis-retinoic acid]
IC50 values, ABCG2 stimulated (quercetin-stimulated) ATPase activity (ABCG2 [1]; 10 μM quercetin): No effect | IC50 values, ABCG2 basal ATPase activity (ABCG2 [1]): No effect | IC50 values, Pgp stimulated (verapamil-stimulated) ATPase activity (Pgp [2]): No effect | IC50 values, Pgp basal ATPase activity (Pgp [2]): No effect | Effect on DPH fluorescence anisotropy [3]: did not have any effect | Effect on calcein accumulation of Pgp expressing cells (Pgp transport activity) (Pgp [4]): none of them had any effect | Effect on mitoxantrone accumulation of ABCG2 expressing cells (ABCG2 transport activity) (ABCG2 [5]): none of them had any effect

CC1=C(/C=C/C(C)=C/C=C/C(C)=C/CO)C(C)(C)CCC1 [Retinol]
Effect on substrate accumulation of transporter negative cells [6]: did not have any effect | IC50 (ABCG2 [1]; [10]): 95.2 ± 10.6 µM | Change of apparent KM of quercetin-stimulated ABCG2 ATPase activity (ABCG2 [1]): increased the KM | Change of vmax of quercetin-stimulated ABCG2 ATPase activity (ABCG2 [1]): decreased the vmax | IC50 (ABCG2 [1]; [11]): 31.6 ± 4.2 µM | Type of inhibition of the quercetin-stimulated ATPase activity of ABCG2 (ABCG2 [1]): mixed-type transporter inhibition | Change of apparent KM of verapamil-stimulated Pgp ATPase activity (Pgp [2]): increased the KM | Change of vmax of verapamil-stimulated Pgp ATPase activity (Pgp [2]): decreased the vmax | Type of inhibition of the verapamil-stimulated ATPase activity of Pgp (Pgp [2]): mixed-type transporter inhibition | Concentration present in the plasma (physiological) ([7]; ref [20]): 1–2 micromolar | LogP (octanol-water partition coefficient, LogPow) ([8]; ref PubChem Compound Database (CID)): 5.7 | IC50 (Pgp [9]; [12]): 23.5 ± 4 µM | IC50 (Pgp [9]; [13]): 27.9 ± 0.7 µM | Effect on DPH fluorescence anisotropy [3]: increased the DPH fluorescence anisotropy values significantly | Effect on DPH anisotropy in transporter expressing compared to non-expressing cells [3]: similarly | Effect on calcein accumulation of Pgp expressing cells (Pgp transport activity) (Pgp [4]): increased the cellular accumulation of the fluorescent transporter substrates in a concentration dependent manner | Effect on mitoxantrone accumulation of ABCG2 expressing cells (ABCG2 transport activity) (ABCG2 [5]): increased the cellular accumulation of the fluorescent transporter substrates in a concentration dependent manner

CCC(=O)OC/C=C(C)/C=C/C=C(C)/C=C/C1=C(C)CCCC1(C)C [Retinyl-propionate]
IC50 values, ABCG2 stimulated (quercetin-stimulated) ATPase activity (ABCG2 [1]; 10 μM quercetin): No effect | IC50 values, ABCG2 basal ATPase activity (ABCG2 [1]): No effect | IC50 values, Pgp stimulated (verapamil-stimulated) ATPase activity (Pgp [2]): No effect | IC50 values, Pgp basal ATPase activity (Pgp [2]): No effect | Effect on calcein accumulation of Pgp expressing cells (Pgp transport activity) (Pgp [4]): none of them had any effect | Effect on mitoxantrone accumulation of ABCG2 expressing cells (ABCG2 transport activity) (ABCG2 [5]): none of them had any effect

O=c1c(O)c(-c2ccc(O)c(O)c2)oc2cc(O)cc(O)c12 [quercetin]
Stimulated ATPase activity of ABCG2 (ABCG2 [1]; 10 μM quercetin): 60–70 nmol Pi/ mg protein/min | Stimulation of ABCG2 ATPase activity (ABCG2 [1]; 10 μM quercetin, maximum stimulation): ~2 fold | LogP (octanol-water partition coefficient, LogPow) ([8]; ref 2 (Rothwell et al., 2005)): 1.8

CC1=C(/C=C/C(C)=C/C=C/C(C)=C/C(=O)O)C(C)(C)CCC1=O [All-trans-4-oxo-retinoic acid, all-trans-4-oxo-retinoic acid]
IC50 values, ABCG2 stimulated (quercetin-stimulated) ATPase activity (ABCG2 [1]; 10 μM quercetin): No effect | IC50 values, ABCG2 basal ATPase activity (ABCG2 [1]): No effect | IC50 values, Pgp stimulated (verapamil-stimulated) ATPase activity (Pgp [2]): Weak inhibition | IC50 values, Pgp basal ATPase activity (Pgp [2]): No effect

CC1=C(/C=C/C(C)=C/C=C/C(C)=C/C(=O)O)C(C)(C)CCC1 [All-trans-retinoic-acid, all-trans retinoic acid]
IC50 values, ABCG2 stimulated (quercetin-stimulated) ATPase activity (ABCG2 [1]; 10 μM quercetin): No effect | IC50 values, ABCG2 basal ATPase activity (ABCG2 [1]): No effect | IC50 values, Pgp stimulated (verapamil-stimulated) ATPase activity (Pgp [2]): No effect | IC50 values, Pgp basal ATPase activity (Pgp [2]): No effect | Plasma concentrations resulting from chemotherapy use [7]: 10 to 20 µM | Effect on DPH fluorescence anisotropy [3]: did not have any effect | Effect on calcein accumulation of Pgp expressing cells (Pgp transport activity) (Pgp [4]): none of them had any effect | Effect on mitoxantrone accumulation of ABCG2 expressing cells (ABCG2 transport activity) (ABCG2 [5]): none of them had any effect

CC1=C(/C=C/C(C)=C/C=C/C(C)=C\C(=O)O)C(C)(C)CCC1 [13-cis-retinoic acid]
Effect on substrate accumulation of transporter negative cells [6]: did not have any effect | IC50 (ABCG2 [1]; [10]): 76.5 ± 2.3 µM | Change of apparent KM of quercetin-stimulated ABCG2 ATPase activity (ABCG2 [1]): apparent increase of the KMvalues | Change of vmax of quercetin-stimulated ABCG2 ATPase activity (ABCG2 [1]): decreased the vmax value | IC50 (ABCG2 [1]; [11]): 70.6 ± 9 µM | Type of inhibition of the quercetin-stimulated ATPase activity of ABCG2 (ABCG2 [1]): mixed-type transporter inhibition | Change of apparent KM of verapamil-stimulated Pgp ATPase activity (Pgp [2]): did not induce statistically significant KM increase | Change of vmax of verapamil-stimulated Pgp ATPase activity (Pgp [2]): decreased the vmax | Type of inhibition of the verapamil-stimulated ATPase activity of Pgp (Pgp [2]): inhibits Pgp only non-competitively | Plasma concentrations resulting from chemotherapy use [7]: 10 to 20 µM | IC50 (Pgp [9]; [12]): 60.5 ± 11.4 µM | IC50 (Pgp [9]; [13]): 26.8 ± 2 µM | Effect on DPH fluorescence anisotropy [3]: increased the DPH fluorescence anisotropy values significantly | Effect on DPH anisotropy in transporter expressing compared to non-expressing cells [3]: similarly | Effect on calcein accumulation of Pgp expressing cells (Pgp transport activity) (Pgp [4]): increased the cellular accumulation of the fluorescent transporter substrates in a concentration dependent manner | Effect on mitoxantrone accumulation of ABCG2 expressing cells (ABCG2 transport activity) (ABCG2 [5]): increased the cellular accumulation of the fluorescent transporter substrates in a concentration dependent manner
